These results are taken from paper PMC10653840, “A new class of protein sensor links spirochete pleomorphism, persistence, and chemotaxis” (mBio, 2023).

The target of experiment [1] is T1, CheWS (Treponema denticola, UniProt F7IUZ1). In words: isothermal titration calorimetry with purified protein. Format: binding. Details: gene cheW-1; full-length CheWS (CheW-CheRlike), poly-His tag. (In general: In ITC the heat of successive injections is recorded.)
Target sequence in this assay (F7IUZ1 entry or part of it): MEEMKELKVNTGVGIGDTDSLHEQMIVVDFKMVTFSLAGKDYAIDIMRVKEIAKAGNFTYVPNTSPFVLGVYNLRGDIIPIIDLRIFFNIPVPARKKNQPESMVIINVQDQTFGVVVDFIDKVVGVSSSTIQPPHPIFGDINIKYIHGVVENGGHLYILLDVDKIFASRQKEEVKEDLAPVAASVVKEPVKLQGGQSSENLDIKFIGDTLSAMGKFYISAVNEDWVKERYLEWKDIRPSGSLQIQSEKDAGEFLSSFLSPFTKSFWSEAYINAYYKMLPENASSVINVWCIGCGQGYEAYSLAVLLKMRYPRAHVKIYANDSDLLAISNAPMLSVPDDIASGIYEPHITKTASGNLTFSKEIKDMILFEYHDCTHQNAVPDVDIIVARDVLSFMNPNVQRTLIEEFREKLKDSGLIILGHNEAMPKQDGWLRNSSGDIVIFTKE
The target of experiment [2] is T1, CheWS. In words: isothermal titration calorimetry with purified domain. Details: gene cheW-1; isolated CheRlike domain (residues 203–444). The class given is binding.
Target sequence in this assay (F7IUZ1 entry or part of it): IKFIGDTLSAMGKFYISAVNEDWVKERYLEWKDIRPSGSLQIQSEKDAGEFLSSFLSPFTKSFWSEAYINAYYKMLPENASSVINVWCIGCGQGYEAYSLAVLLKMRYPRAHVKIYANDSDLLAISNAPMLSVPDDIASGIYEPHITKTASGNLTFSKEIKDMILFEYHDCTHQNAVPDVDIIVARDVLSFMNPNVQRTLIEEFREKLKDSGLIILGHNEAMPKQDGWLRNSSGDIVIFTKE

Each structure is given as a SMILES string.

As a reminder, the Kd is the equilibrium constant for the complex coming apart. Low readings indicate a tighter complex, high ones a looser complex. For `Nc1ncnc2c1ncn2[C@@H]1O[C@H](CSCC[C@H](N)C(=O)O)[C@@H](O)[C@H]1O` [SAH, S-adenosylhomocysteine], the Kd in experiment [1] was roughly 17 µM. On to `C[S+](CC[C@H](N)C(=O)[O-])C[C@H]1O[C@@H](n2cnc3c(N)ncnc32)[C@H](O)[C@@H]1O` (some centres unmarked) [SAM, S-adenosylmethionine], for which the Kd in experiment [2] was roughly 18 µM.
